System: ECHOR (Echinochloa oryzoides, early watergrass)
Assay: In-water applied weed control, transplanted paddy rice, greenhouse (Example II)
Format: in vivo, Echinochloa oryzoides (Ard.) Fritsch
In short: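 Transplanted rice and weeds at first to fourth true leaf stage in flooded mud pots (2.5–3 cm water), greenhouse ~29/26 °C day/night. Herbicides alone or mixed, in 1.25% crop oil concentrate (acetone for technical material), injected into the flood; visual 0–100% injury after ~3 weeks, expected mixture effects by Colby.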

SMILES: COc1c(Cl)ccc(-c2nc(C(=O)O)c(Cl)c(N)c2F)c1F [Compound A Acid, 4-amino-3-chloro-5-fluoro-6-(4-chloro-2-fluoro-3-methoxy-phenyl)pyridine-2-carboxylic acid]
- Visual Weed Control (%) - 20 DAA ECHOR Obs (Table 28, 8.75 gae/ha alone): 20%
- Visual Weed Control (%) - 20 DAA ECHOR Obs (Table 28, 17.5 gae/ha alone): 30%
- Visual Weed Control (%) - 20 DAA ECHOR Obs (Table 28, 35 gae/ha alone): 40%
- Visual Weed Control (%) - 20 DAA ECHOR Obs (Table 28, second set, 35 gae/ha alone): 25%
- Visual Weed Control (%) - 20 DAA ECHOR Obs (Table 28, second set, 70 gae/ha alone): 35%
- Visual Weed Control (%) - 25 DAA ECHOR Obs (Table 31, 8.75 gae/ha alone): 0%
- Visual Weed Control (%) - 25 DAA ECHOR Obs (Table 31, 17.5 gae/ha alone): 0%
- Visual Weed Control (%) - 25 DAA ECHOR Obs (Table 31, 35 gae/ha alone): 40%
- Visual Weed Control (%) - 19 DAA ECHOR Obs (Table 31, 42 gae/ha alone): 15%
- Visual Weed Control (%) - 22 DAA ECHOR Obs (Table 34, 10.6 gae/ha alone): 15%
- Visual Weed Control (%) - 22 DAA ECHOR Obs (Table 34, 21.2 gae/ha alone): 30%
- Visual Weed Control (%) - 22 DAA ECHOR Obs (Table 34, 42.4 gae/ha alone): 40%
- Visual Weed Control (%) - 21 DAA ECHOR Obs (Table 36, 8.75 gae/ha alone): 10%
- Visual Weed Control (%) - 21 DAA ECHOR Obs (Table 36, 17.5 gae/ha alone): 10%
- Visual Weed Control (%) - 21 DAA ECHOR Obs (Table 36, 35 gae/ha alone): 15%
- Visual Weed Control (%) - 21 DAA ECHOR Obs (Table 41, 10.6 gae/ha alone): 0%
- Visual Weed Control (%) - 21 DAA ECHOR Obs (Table 41, 21.2 gae/ha alone): 15%
- Visual Weed Control (%) - 21 DAA ECHOR Obs (Table 41, 42.4 gae/ha alone): 15%
- Visual Weed Control (%) - 20 DAA ECHOR Obs (Table 43, 10.6 gae/ha alone): 10%
- Visual Weed Control (%) - 20 DAA ECHOR Obs (Table 43, 21.2 gae/ha alone): 30%
- Visual Weed Control (%) - 20 DAA ECHOR Obs (Table 43, 42.4 gae/ha alone): 45%

SMILES: COCC(=O)OC(c1ncccc1S(=O)(=O)NC(=O)Nc1nc(OC)cc(OC)n1)C(C)F (stereo not shown) [Flucetosulfuron, 1-[3-[[[[(4,6-dimethoxy-2-pyrimidinyl)amino]carbonyl]amino]sulfonyl]-2-pyridinyl]-2-fluoropropyl 2-methoxyacetate]
- Visual Weed Control (%) - 21 DAA ECHOR Obs (Table 36, 0.1 gai/ha alone): 0%
- Visual Weed Control (%) - 21 DAA ECHOR Obs (Table 36, 0.2 gai/ha alone): 0%
- Visual Weed Control (%) - 21 DAA ECHOR Obs (Table 37, 0.1 gai/ha alone): 0%
- Visual Weed Control (%) - 21 DAA ECHOR Obs (Table 37, 0.2 gai/ha alone): 0%

SMILES: COc1c(Cl)ccc(-c2nc(C(=O)OCc3ccccc3)c(Cl)c(N)c2F)c1F [Compound A Benzyl Ester]
- Visual Weed Control (%) - 20 DAA ECHOR Obs (Table 29, 4.38 gae/ha alone): 10%
- Visual Weed Control (%) - 20 DAA ECHOR Obs (Table 29, 8.75 gae/ha alone): 20%
- Visual Weed Control (%) - 20 DAA ECHOR Obs (Table 29, 17.5 gae/ha alone): 30%
- Visual Weed Control (%) - 20 DAA ECHOR Obs (Table 29, 35 gae/ha alone): 53%
- Visual Weed Control (%) - 20 DAA ECHOR Obs (Table 29, 70 gae/ha alone): 73%
- Visual Weed Control (%) - 21 DAA ECHOR Obs (Table 32, 8 gae/ha alone): 8%
- Visual Weed Control (%) - 21 DAA ECHOR Obs (Table 32, 16 gae/ha alone): 5%
- Visual Weed Control (%) - 22 DAA ECHOR Obs (Table 35, 17.5 gae/ha alone): 30%
- Visual Weed Control (%) - 21 DAA ECHOR Obs (Table 37, 8.75 gae/ha alone): 25%
- Visual Weed Control (%) - 21 DAA ECHOR Obs (Table 37, 17.5 gae/ha alone): 25%
- Visual Weed Control (%) - 21 DAA ECHOR Obs (Table 42, 4.38 gae/ha alone): 15%
- Visual Weed Control (%) - 21 DAA ECHOR Obs (Table 42, 8.75 gae/ha alone): 15%
- Visual Weed Control (%) - 21 DAA ECHOR Obs (Table 42, 17.5 gae/ha alone): 20%
- Visual Weed Control (%) - 20 DAA ECHOR Obs (Table 44, 8.75 gae/ha alone): 20%
- Visual Weed Control (%) - 20 DAA ECHOR Obs (Table 44, 17.5 gae/ha alone): 30%
- Visual Weed Control (%) - 21 DAA ECHOR Obs (Table 46, 4.38 gae/ha alone): 0%
- Visual Weed Control (%) - 21 DAA ECHOR Obs (Table 46, 8.75 gae/ha alone): 10%
- Visual Weed Control (%) - 21 DAA ECHOR Obs (Table 46, 17.5 gae/ha alone): 60%

SMILES: COC(=O)c1ccccc1CS(=O)(=O)NC(=O)Nc1nc(OC)cc(OC)n1 [Bensulfuron-methyl, methyl 2-[[[[[(4,6-dimethoxy-2-pyrimidinyl)amino]carbonyl]amino]sulfonyl]methyl]benzoate, reference compound]
- Visual Weed Control (%) - 25 DAA ECHOR Obs (Table 31, 35 gai/ha alone): 80%
- Visual Weed Control (%) - 19 DAA ECHOR Obs (Table 31, 70 gai/ha alone): 78%
- Visual Weed Control (%) - 25 DAA ECHOR Obs (Table 31, 70 gai/ha alone): 85%
- Visual Weed Control (%) - 21 DAA ECHOR Obs (Table 32, 35 gai/ha alone): 0%
- Visual Weed Control (%) - 21 DAA ECHOR Obs (Table 32, 70 gai/ha alone): 15%

SMILES: COC(=O)c1ccccc1S(=O)(=O)NC(=O)Nc1nc(C)nc(OC)n1 [Metsulfuron-methyl, methyl 2-[[[[(4-methoxy-6-methyl-1,3,5-triazin-2-yl)amino]carbonyl]amino]sulfonyl]benzoate, reference compound]
- Visual Weed Control (%) - 21 DAA ECHOR Obs (Table 41, 7.5 gai/ha alone): 50%
- Visual Weed Control (%) - 21 DAA ECHOR Obs (Table 41, 15 gai/ha alone): 65%
- Visual Weed Control (%) - 21 DAA ECHOR Obs (Table 42, 7.5 gai/ha alone): 50%
- Visual Weed Control (%) - 21 DAA ECHOR Obs (Table 42, 15 gai/ha alone): 65%
